Measured values from US7098012B1, “DNA demethylase, therapeutic and diagnostic uses thereof” (McGill University, priority 1997, dated 2006).
“Also recorded” adds a separate entry of the source.

Assays:
DNA dMTase [1] = test: Demethylation of [mdC32pdG]n substrate (conversion of mdCMP to dCMP) with additives or pretreatment; assay type: biochemical, human; conditions: 500 μM, initial rate conditions, FIG. 2a
Description: (A) To assay the conversion of methyl-dCMP (mdCMP) to dCMP we used a previously described method (Szyf et al., 1995). Briefly, α^32P labeled, fully methylated poly[mdC^32PdG]n substrate was prepared as follows. One hundred ng of a double-stranded fully methylated (mdCpdG) oligomer (Pharmacia) were denatured by boiling, which was followed by partial annealing at room temperature. The complementary strand was extended with Klenow fragment (Boehringer Mannheim) using methyl-5-dCTP (mdCTP, 0.1 mM) (Boehringer Mannheim) and […] (100 μCi, 3000 Ci/mmol), and the unincorporated nucleotides were removed by chromatography through a NAP-5 column (Pharmacia). The NAP-5 chromatography was repeated to exclude minor contamination with unincorporated nucleotides. As a control a non-methylated poly[dC^32pdG]n substrate was similarly prepared except that a nonmethylated dCpdG oligomer served as a template and dCTP was used in the extension reaction. The column fractions (30 μl), described in the experimental procedures were incubated with 1 ng of poly[mdC^32pdG]n substrate for 1 hour at 37° C. in a buffer L containing 25% glycerol (v/v) and 5 mM EDTA. […] The digestion products were loaded onto a thin layer chromatography plate (TLC) (Kodak, 13255 Cellulose), separated in a medium containing, 132 ml Isobutyric acid:40 ml water:4 ml ammonia solution, autoradiographed and the intensity of the different spots was determined using a phosphorimager (Fuji, BAS 2000). ^32P labeled substrates and tritium labeled substrates were phosphoimaged using BAS 2000 plate and BAS-TR2040 phosphorimager plate respectively. (B) The second method determined removal of methylated residues from methylated DNA by measuring disappearance of ^3H—CH3 or ^14C—CH3 from the reaction mixture. […] The number of methyl groups that were removed from the DNA by the different fractions was determined by subtracting the remaining counts in each of the fractions from the counts remaining in the control. […]

DNA dMTase [2] = target: DNA dMTase (Homo sapiens, UniProt Q9UBB5); test: Volatilization of radioactive methyl residues assay; assay type: biochemical; conditions: imidazole 1 μM to 10 mM; FIG. 16
Sequence of DNA dMTase (Homo sapiens, UniProt Q9UBB5) (Q9UBB5 whole entry): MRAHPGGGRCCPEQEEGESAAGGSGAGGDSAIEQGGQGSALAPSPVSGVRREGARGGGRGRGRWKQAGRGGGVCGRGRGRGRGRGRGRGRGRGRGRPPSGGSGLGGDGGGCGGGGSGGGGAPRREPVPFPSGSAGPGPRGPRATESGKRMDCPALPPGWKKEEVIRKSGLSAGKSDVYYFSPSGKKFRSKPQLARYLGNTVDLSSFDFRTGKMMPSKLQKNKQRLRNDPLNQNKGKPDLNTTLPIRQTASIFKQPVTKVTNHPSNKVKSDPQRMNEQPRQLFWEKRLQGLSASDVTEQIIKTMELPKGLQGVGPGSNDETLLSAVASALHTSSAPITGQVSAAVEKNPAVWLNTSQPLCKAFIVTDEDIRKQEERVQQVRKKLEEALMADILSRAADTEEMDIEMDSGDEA

| Structure (SMILES) | inhibition of demethylation of the [mdC32pdG]n substrate (DNA dMTase [1]) | inhibition of demethylation of the [mdC32pdG]n substrate (DNA dMTase [1]; listed as methyl dCTP) | inhibition of DNA dMTase activity (DNA dMTase [2]) |
| --- | --- | --- | --- |
| Cc1cn([C@H]2C[C@H](O)[C@@H](COP(=O)(O)OP(=O)(O)OP(=O)(O)O)O2)c(=O)nc1N [methyl-dCTP, methyl-5-dCTP] | nor is it inhibited | not affected |  |
| Nc1ccn([C@H]2CC[C@@H](COP(=O)(O)OP(=O)(O)OP(=O)(O)O)O2)c(=O)n1 [ddCTP] | insensitive; also recorded: does not inhibit |  |  |
| c1c[nH]cn1 [imidazole] |  |  | dose dependent inhibition |
